#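 In this assay, cells in 96-well plates receive the compound at five concentrations for 48 hours. Endpoints are linearly interpolated between the surrounding concentrations. TGI marks complete inhibition of growth.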 Calls of active or inactive are those of the source. Cut-off read from the data, not from the text of the source: active = GI50 below about 0.43 µM; inactive = the rest.
# Assays:
# Assay in all cases: DTP human tumour cell line panel, 48 h
# MDA-MB-231 breast = tested on: MDA-MB-231 breast
# MDA-MB-435 = tested on: MDA-MB-435
# BT-549 breast = tested on: BT-549 breast
# NCI-H23 lung = tested on: NCI-H23 lung
# UACC-62 melanoma = tested on: UACC-62 melanoma
# RXF 393 renal = tested on: RXF 393 renal
# UACC-257 melanoma = tested on: UACC-257 melanoma
# SF-295 CNS = tested on: SF-295 CNS
# T-47D breast = tested on: T-47D breast
# U251 CNS = tested on: U251 CNS
# EKVX NSCLC = tested on: EKVX NSCLC
# NCI-H522 lung = tested on: NCI-H522 lung
# OVCAR-5 ovarian = tested on: OVCAR-5 ovarian
# HCT-15 colon = tested on: HCT-15 colon
# MDA-N = tested on: MDA-N
# CCRF-CEM leukemia = tested on: CCRF-CEM leukemia
# M14 melanoma = tested on: M14 melanoma
# K-562 leukemia = tested on: K-562 leukemia
# ACHN renal = tested on: ACHN renal
# SR leukemia = tested on: SR leukemia
# COLO 205 colon = tested on: COLO 205 colon
# MCF7 breast = tested on: MCF7 breast
# OVCAR-8 ovarian = tested on: OVCAR-8 ovarian
# A498 renal = tested on: A498 renal
# SK-OV-3 ovarian = tested on: SK-OV-3 ovarian
# SN12C renal = tested on: SN12C renal
# LOX IMVI melanoma = tested on: LOX IMVI melanoma
# SNB-19 CNS = tested on: SNB-19 CNS
# DU-145 prostate = tested on: DU-145 prostate
# NCI-H226 lung = tested on: NCI-H226 lung
# 786-0 renal = tested on: 786-0 renal
# SF-539 CNS = tested on: SF-539 CNS
# RPMI-8226 leukemia = tested on: RPMI-8226 leukemia
# OVCAR-4 ovarian = tested on: OVCAR-4 ovarian
# TK-10 renal = tested on: TK-10 renal
# NCI-H460 lung = tested on: NCI-H460 lung
# HT29 colon = tested on: HT29 colon
# UO-31 renal = tested on: UO-31 renal
# HOP-62 NSCLC = tested on: HOP-62 NSCLC
# KM12 colon = tested on: KM12 colon
# HCT-116 colon = tested on: HCT-116 colon
# SK-MEL-2 melanoma = tested on: SK-MEL-2 melanoma
# MALME-3M melanoma = tested on: MALME-3M melanoma
# CAKI-1 renal = tested on: CAKI-1 renal
# MOLT-4 leukemia = tested on: MOLT-4 leukemia
# OVCAR-3 ovarian = tested on: OVCAR-3 ovarian
# SK-MEL-28 melanoma = tested on: SK-MEL-28 melanoma
# PC-3 prostate = tested on: PC-3 prostate
# HCC-2998 colon = tested on: HCC-2998 colon
# HS 578T breast = tested on: HS 578T breast
# HL-60(TB) leukemia = tested on: HL-60(TB) leukemia
# SF-268 CNS = tested on: SF-268 CNS
# SW-620 colon = tested on: SW-620 colon
# SNB-75 CNS = tested on: SNB-75 CNS
# IGROV1 ovarian = tested on: IGROV1 ovarian
# A549 NSCLC = tested on: A549 NSCLC
# HOP-92 NSCLC = tested on: HOP-92 NSCLC
# SK-MEL-5 melanoma = tested on: SK-MEL-5 melanoma
structure (smiles),measurement,setting,value
C[C@H](N)C(O)C/C=C\C/C=C\C/C=C\C/C=C\C/C=C\C/C=C\CCCCCCC(O)[C@H](C)N (stereo partly specified),outcome,MDA-MB-231 breast,inactive
same,outcome,MDA-MB-435,inactive
same,outcome,BT-549 breast,inactive
same,outcome,NCI-H23 lung,inactive
same,outcome,UACC-62 melanoma,inactive
same,outcome,RXF 393 renal,inactive
same,outcome,UACC-257 melanoma,inactive
same,outcome,SF-295 CNS,inactive
same,outcome,T-47D breast,inactive
same,outcome,U251 CNS,inactive
same,outcome,EKVX NSCLC,inactive
same,outcome,NCI-H522 lung,inactive
same,outcome,OVCAR-5 ovarian,inactive
same,outcome,HCT-15 colon,inactive
same,outcome,MDA-N,inactive
same,outcome,CCRF-CEM leukemia,inactive
same,outcome,M14 melanoma,inactive
same,outcome,K-562 leukemia,inactive
same,outcome,ACHN renal,inactive
same,outcome,SR leukemia,inactive
same,outcome,COLO 205 colon,inactive
same,outcome,MCF7 breast,inactive
same,outcome,OVCAR-8 ovarian,inactive
same,outcome,A498 renal,inactive
same,outcome,SK-OV-3 ovarian,inactive
same,outcome,SN12C renal,inactive
same,outcome,LOX IMVI melanoma,inactive
same,outcome,SNB-19 CNS,inactive
same,outcome,DU-145 prostate,inactive
same,outcome,NCI-H226 lung,inactive
same,outcome,786-0 renal,inactive
same,outcome,SF-539 CNS,inactive
same,outcome,RPMI-8226 leukemia,inactive
same,outcome,OVCAR-4 ovarian,inactive
same,outcome,TK-10 renal,inactive
same,outcome,NCI-H460 lung,inactive
same,outcome,HT29 colon,inactive
same,outcome,UO-31 renal,inactive
same,outcome,HOP-62 NSCLC,inactive
same,outcome,KM12 colon,inactive
same,outcome,HCT-116 colon,inactive
same,outcome,SK-MEL-2 melanoma,inactive
same,outcome,MALME-3M melanoma,inactive
same,outcome,CAKI-1 renal,inactive
same,outcome,MOLT-4 leukemia,inactive
same,outcome,OVCAR-3 ovarian,inactive
same,outcome,SK-MEL-28 melanoma,inactive
same,outcome,PC-3 prostate,inactive
same,outcome,HCC-2998 colon,inactive
same,outcome,HS 578T breast,inactive
same,outcome,HL-60(TB) leukemia,inactive
same,outcome,SF-268 CNS,inactive
same,outcome,SW-620 colon,inactive
same,outcome,SNB-75 CNS,inactive
[N-]=[N+]=NC1=CC(=O)c2cccc3cccc1c23,TGI,MDA-MB-231 breast,> 100 µM
same,TGI,MDA-MB-435,> 100 µM
same,TGI,BT-549 breast,63 µM
same,TGI,NCI-H23 lung,82 µM
same,TGI,IGROV1 ovarian,51.8 µM
same,TGI,UACC-62 melanoma,42.1 µM
same,TGI,RXF 393 renal,34.5 µM
same,TGI,UACC-257 melanoma,72.2 µM
same,TGI,SF-295 CNS,84.3 µM
same,TGI,T-47D breast,> 100 µM
same,TGI,U251 CNS,71 µM
same,TGI,OVCAR-5 ovarian,> 100 µM
same,TGI,MDA-N,> 100 µM
same,TGI,CCRF-CEM leukemia,> 100 µM
same,TGI,M14 melanoma,82.8 µM
same,TGI,A549 NSCLC,> 100 µM
same,TGI,K-562 leukemia,> 100 µM
same,TGI,ACHN renal,> 100 µM
same,TGI,SR leukemia,> 100 µM
same,TGI,COLO 205 colon,> 100 µM
same,TGI,MCF7 breast,> 100 µM
same,TGI,A498 renal,38.9 µM
same,TGI,SK-OV-3 ovarian,35.6 µM
same,TGI,SN12C renal,> 100 µM
same,TGI,LOX IMVI melanoma,> 100 µM
same,TGI,SNB-19 CNS,> 100 µM
same,TGI,DU-145 prostate,> 100 µM
same,TGI,786-0 renal,> 100 µM
same,TGI,SF-539 CNS,88 µM
same,TGI,RPMI-8226 leukemia,> 100 µM
same,TGI,OVCAR-4 ovarian,> 100 µM
same,TGI,HOP-92 NSCLC,66.7 µM
same,TGI,TK-10 renal,88.2 µM
same,TGI,NCI-H460 lung,> 100 µM
same,TGI,HT29 colon,> 100 µM
same,TGI,UO-31 renal,> 100 µM
same,TGI,HOP-62 NSCLC,48.1 µM
same,TGI,KM12 colon,> 100 µM
same,TGI,HCT-116 colon,> 100 µM
same,TGI,MALME-3M melanoma,> 100 µM
same,TGI,SK-MEL-5 melanoma,27.8 µM
same,TGI,CAKI-1 renal,> 100 µM
same,TGI,MOLT-4 leukemia,> 100 µM
same,TGI,OVCAR-3 ovarian,> 100 µM
same,TGI,SK-MEL-28 melanoma,> 100 µM
same,TGI,PC-3 prostate,> 100 µM
same,TGI,HCC-2998 colon,> 100 µM
same,TGI,HS 578T breast,69.8 µM
same,TGI,HL-60(TB) leukemia,> 100 µM
same,TGI,SF-268 CNS,> 100 µM
same,TGI,SW-620 colon,> 100 µM
same,TGI,SNB-75 CNS,31 µM

# — PubChem BioAssay (NCI)
